Test results published in ChEMBL document CHEMBL1201862, “PubChem BioAssay data set” (2004).
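Growth conditions: 96-well plates. Treatment: test compound, 48 hours, 5 concentrations. Analysis: linear interpolation between bracketing concentrations; unreached endpoints set to highest concentration. GI50 = concentration required for 50% inhibition of growth.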 Active and inactive are the calls of the source. Rule as the data show it: active = GI50 up to about 1.1 µM and inactive = higher.

Columns and labels:
Assay in all cases: NCI-60 cell line screen, 48 h
[1] = system: PC-3
[2] = system: SN12C
[3] = system: OVCAR-8
[4] = system: SK-MEL-2
[5] = system: SF-539
[6] = system: UACC-62
[7] = system: LOX IMVI
[8] = system: 786-0
[9] = system: MDA-N
[10] = system: SNB-19
[11] = system: DU-145
[12] = system: HCT-116
[13] = system: EKVX
[14] = system: HT-29
[15] = system: NCI-H23
[16] = system: RPMI-8226
[17] = system: SK-OV-3
[18] = system: A549
[19] = system: HOP-92

Row | Compound | GI50 [1] | GI50 [2] | GI50 [3] | GI50 [4] | GI50 [5] | GI50 [6] | GI50 [7] | GI50 [8] | GI50 [9] | GI50 [10] | GI50 [11] | GI50 [12] | GI50 [13] | GI50 [14] | GI50 [15] | GI50 [16] | GI50 [17] | GI50 [18] | GI50 [19]
1 | CC(C(=O)O)C(C)(O)C(=O)O (centres undefined) | > 100 µM (inactive) | > 100 µM (inactive) | > 100 µM (inactive) | > 100 µM (inactive) | > 100 µM (inactive) | > 100 µM (inactive) | > 100 µM (inactive) | > 100 µM (inactive) | > 100 µM (inactive) | > 100 µM (inactive) | > 100 µM (inactive) | > 100 µM (inactive) | > 100 µM (inactive) | > 100 µM (inactive) | > 100 µM (inactive) | > 100 µM (inactive) | > 100 µM (inactive) | > 100 µM (inactive) | 
2 | CCCCCC(/C=N/NC(N)=S)C(O)(C(F)(F)F)C(F)(F)F (centres undefined) | > 10 µM (inactive) | > 10 µM (inactive) | > 10 µM (inactive) | > 10 µM (inactive) | > 10 µM (inactive) | > 10 µM (inactive) | > 10 µM (inactive) | > 10 µM (inactive) | > 10 µM (inactive) | > 10 µM (inactive) | > 10 µM (inactive) | > 10 µM (inactive) | > 10 µM (inactive) | > 10 µM (inactive) | > 10 µM (inactive) |  | > 10 µM (inactive) | > 10 µM (inactive) | > 10 µM (inactive)
3 | c1ccc2c(c1)SCCCSCCCS2 | > 100 µM (inactive) | > 100 µM (inactive) | > 100 µM (inactive) |  | > 100 µM (inactive) | > 100 µM (inactive) | > 100 µM (inactive) | > 100 µM (inactive) | > 100 µM (inactive) | > 100 µM (inactive) | > 100 µM (inactive) | 63.4 µM (inactive) | > 100 µM (inactive) | > 10 µM (inactive) | > 100 µM (inactive) |  | > 100 µM (inactive) | > 100 µM (inactive) | 60.1 µM (inactive)
4 | Cc1ccc(CC2(C(=O)O)Cc3ccc(C)cc3C2)cc1 (centres undefined) | 51.5 µM (inactive) | > 100 µM (inactive) | > 100 µM (inactive) | > 100 µM (inactive) | > 100 µM (inactive) | 56.5 µM (inactive) | > 100 µM (inactive) | > 100 µM (inactive) | > 100 µM (inactive) | > 100 µM (inactive) | > 100 µM (inactive) | > 100 µM (inactive) | 55.3 µM (inactive) | > 100 µM (inactive) | 75.5 µM (inactive) | 69.3 µM (inactive) | > 100 µM (inactive) | 72.9 µM (inactive) | 
5 | Cn1c(=O)cc(NNc2ccc(Br)cc2)[nH]c1=O | 10 µM (inactive) | 10.7 µM (inactive) | 19.1 µM (inactive) |  | 3.31 µM (inactive) |  | 2.11 µM (inactive) | 9.59 µM (inactive) | 14.7 µM (inactive) | 13.6 µM (inactive) | 6.55 µM (inactive) | 10.4 µM (inactive) | 16.5 µM (inactive) | 3.53 µM (inactive) |  | 6 µM (inactive) |  | 13.9 µM (inactive) | 13.9 µM (inactive)
6 | COc1cc(S(=O)(=O)Nc2nc(-c3ccc(N)cc3)cs2)ccc1Cl | 51.8 µM (inactive) | 34.4 µM (inactive) | 64.7 µM (inactive) | 69.5 µM (inactive) | > 100 µM (inactive) | 28.4 µM (inactive) | 91.8 µM (inactive) | > 100 µM (inactive) | 55.8 µM (inactive) | 91.4 µM (inactive) | > 100 µM (inactive) | 65.2 µM (inactive) | 42.7 µM (inactive) | 54 µM (inactive) | 45.8 µM (inactive) |  | 97.9 µM (inactive) | 51.5 µM (inactive) | 64.9 µM (inactive)
7 | Cc1ccc(N2C(=O)C=C(C3=C(O)C(=O)N(c4ccc(C)cc4)C3=O)C2=O)cc1 | > 100 µM (inactive) | > 100 µM (inactive) | > 100 µM (inactive) |  |  | > 100 µM (inactive) | > 100 µM (inactive) | > 100 µM (inactive) | > 100 µM (inactive) | > 100 µM (inactive) | > 100 µM (inactive) | > 100 µM (inactive) | > 100 µM (inactive) | > 100 µM (inactive) | > 100 µM (inactive) | > 100 µM (inactive) | > 100 µM (inactive) | > 100 µM (inactive) | 46.5 µM (inactive)
8 | COC(=O)C1C(=O)CC(C)(O)C(C(=O)OC)C1c1ccc(N(C)C)cc1 (centres undefined) | > 100 µM (inactive) | > 100 µM (inactive) | > 100 µM (inactive) | > 100 µM (inactive) |  | > 100 µM (inactive) | 11.6 µM (inactive) | 12 µM (inactive) | > 100 µM (inactive) | > 100 µM (inactive) | > 100 µM (inactive) | 8.67 µM (inactive) | > 100 µM (inactive) | > 100 µM (inactive) | > 100 µM (inactive) |  |  | > 100 µM (inactive) | > 100 µM (inactive)
9 | O=C(C/N=C(\CN(c1ccccc1)c1ccccc1)Oc1c([N+](=O)[O-])cc([N+](=O)[O-])cc1[N+](=O)[O-])N1CCNCC1 | > 100 µM (inactive) | > 100 µM (inactive) | 61.7 µM (inactive) |  | > 100 µM (inactive) | 43 µM (inactive) |  | > 100 µM (inactive) | > 100 µM (inactive) | > 100 µM (inactive) | > 100 µM (inactive) | > 100 µM (inactive) | > 100 µM (inactive) | > 100 µM (inactive) | > 100 µM (inactive) | > 100 µM (inactive) | 0.622 µM (active) | > 100 µM (inactive) | 67.5 µM (inactive)
10 | O=c1cc(-c2ccccc2)nc(-n2[nH]c3c(c2=O)CCCC3)[nH]1 | 5 µM (inactive) | 10.8 µM (inactive) |  | 2.36 µM (inactive) | 4.98 µM (inactive) | 2.32 µM (inactive) |  | 1.91 µM (inactive) | 7.29 µM (inactive) | 11 µM (inactive) | 1.57 µM (inactive) | 2.7 µM (inactive) | 4.94 µM (inactive) | 4.31 µM (inactive) | 7.33 µM (inactive) | 4.17 µM (inactive) | 17.4 µM (inactive) | 4.35 µM (inactive) | 2.85 µM (inactive)
11 | CC[C@@H]1CC[C@@H]2[C@H](CC[C@]3(C)[C@@H](OS(=O)(=O)c4ccc(C)cc4)CC[C@@H]23)[C@H]1COS(=O)(=O)c1ccc(C)cc1 | > 100 µM (inactive) | > 100 µM (inactive) | > 100 µM (inactive) |  | > 100 µM (inactive) |  | > 100 µM (inactive) | > 100 µM (inactive) | > 100 µM (inactive) | > 100 µM (inactive) | > 100 µM (inactive) | > 100 µM (inactive) | > 100 µM (inactive) | > 100 µM (inactive) |  | > 100 µM (inactive) |  | > 100 µM (inactive) | > 100 µM (inactive)
12 | COP(=O)(/C=C/C(NC(=O)C(Cl)(Cl)Cl)c1ccccc1)OC (centres undefined) | > 100 µM (inactive) | > 100 µM (inactive) | > 100 µM (inactive) | > 100 µM (inactive) |  | > 100 µM (inactive) | > 100 µM (inactive) | > 100 µM (inactive) | > 100 µM (inactive) | > 100 µM (inactive) | > 100 µM (inactive) | > 100 µM (inactive) | > 100 µM (inactive) | > 100 µM (inactive) | > 100 µM (inactive) | > 100 µM (inactive) | > 100 µM (inactive) | > 100 µM (inactive) | > 100 µM (inactive)
13 | O=C(O)CCNc1[nH]cnc2ncnc1-2 | > 100 µM (inactive) | > 100 µM (inactive) | > 100 µM (inactive) | > 100 µM (inactive) |  | > 100 µM (inactive) | > 100 µM (inactive) | > 100 µM (inactive) | > 100 µM (inactive) | > 100 µM (inactive) | > 100 µM (inactive) | > 100 µM (inactive) | > 100 µM (inactive) | > 100 µM (inactive) | > 100 µM (inactive) | > 100 µM (inactive) | > 100 µM (inactive) | > 100 µM (inactive) | > 100 µM (inactive)
14 | Oc1ccc(-c2cn3cc(C(F)(F)F)ccc3n2)cc1 | 46.9 µM (inactive) | 72.3 µM (inactive) | 37.8 µM (inactive) | 62.2 µM (inactive) |  | 31.7 µM (inactive) | 43.2 µM (inactive) | 30.7 µM (inactive) | 43.7 µM (inactive) | > 100 µM (inactive) | 30.6 µM (inactive) | 49.1 µM (inactive) | 56.2 µM (inactive) | 34.8 µM (inactive) | 38 µM (inactive) |  | > 100 µM (inactive) | 44.8 µM (inactive) | > 100 µM (inactive)
15 | CC(=O)OC12c3ccccc3C(c3ccccc31)C1C(=O)N(N=C(C)C)C(=O)C12 (centres undefined) | > 100 µM (inactive) | > 100 µM (inactive) | > 100 µM (inactive) |  | > 100 µM (inactive) | > 100 µM (inactive) | > 100 µM (inactive) | > 100 µM (inactive) | > 100 µM (inactive) | > 100 µM (inactive) | > 100 µM (inactive) | > 100 µM (inactive) | > 100 µM (inactive) | > 100 µM (inactive) | > 100 µM (inactive) | > 100 µM (inactive) | > 100 µM (inactive) | > 100 µM (inactive) | 
16 | CC1OC(OC2C(O[C@H]3CC[C@@]4(C)C(=CC[C@H]5[C@@H]6C[C@@H]7O[C@]8(CC[C@H](C)CN8)[C@@H](C)[C@@H]7[C@@]6(C)CC[C@@H]54)C3)OC(CO)C(O)C2OC2OC(CO)C(O)C(O)C2O)C(O)C(O)C1O (some centres undefined) | 18.1 µM (inactive) | 20.8 µM (inactive) | 15.5 µM (inactive) | 18.4 µM (inactive) | 16.7 µM (inactive) | 17.6 µM (inactive) | 28.3 µM (inactive) | 24 µM (inactive) | 20.7 µM (inactive) | 20.7 µM (inactive) | 19.4 µM (inactive) | 20.1 µM (inactive) | 16.5 µM (inactive) | 17.8 µM (inactive) | 18.5 µM (inactive) |  | 16.9 µM (inactive) | 18.1 µM (inactive) | 17.5 µM (inactive)
